Experimental data taken from ChEMBL document CHEMBL1155881, “Structure-based development of novel adenylyl cyclase inhibitors” (J Med Chem, 2008).
Active and inactive are the calls of the source. The rule behind the calls is not given here.

Key:
[1] = target: Adenylate cyclase (Homo sapiens) (UniProt Q8NFM4+O60503+Q08828+P40145+O60266+O95622+O43306+Q08462+P51828); assay: Inhibition of forskolin-stimulated human transmembrane adenylyl cyclase activity in HEK293 cells at 100 uM; assay type: cell-based
[2] = target: Adenylate cyclase type 1 (Homo sapiens) (UniProt Q08828); assay: Inhibition of forskolin-stimulated adenylyl cyclase 1 activity expressed in HEK293 cells at 100 uM; assay type: cell-based
[3] = target: Adenylate cyclase type 2 (Homo sapiens) (UniProt Q08462); assay: Inhibition of basal activity of adenylyl cyclase 2 expressed in HEK293 cells at 100 uM; assay type: cell-based
[4] = target: Adenylate cyclase type 5 (Homo sapiens) (UniProt O95622); assay: Inhibition of forskolin-stimulated adenylyl cyclase 5 activity expressed in HEK293 cells at 100 uM; assay type: cell-based
[5] = target: Adenylate cyclase type 2 (Homo sapiens) (UniProt Q08462); assay: Stimulation of basal activity of adenylyl cyclase 2 expressed in HEK293 cells at 100 uM in presence of forskolin; assay type: cell-based
[6] = target: Adenylate cyclase type 10 (Homo sapiens, UniProt Q96PN6); assay: Inhibition of human recombinant soluble adenylyl cyclase
[7] = target: T1, Adenylate cyclase type 9 (Homo sapiens) (UniProt O60503); assay: Inhibition of basal activity of adenylyl cyclase 9 expressed in HEK293 cells at 100 uM; assay type: cell-based
T1 sequence (whole entry): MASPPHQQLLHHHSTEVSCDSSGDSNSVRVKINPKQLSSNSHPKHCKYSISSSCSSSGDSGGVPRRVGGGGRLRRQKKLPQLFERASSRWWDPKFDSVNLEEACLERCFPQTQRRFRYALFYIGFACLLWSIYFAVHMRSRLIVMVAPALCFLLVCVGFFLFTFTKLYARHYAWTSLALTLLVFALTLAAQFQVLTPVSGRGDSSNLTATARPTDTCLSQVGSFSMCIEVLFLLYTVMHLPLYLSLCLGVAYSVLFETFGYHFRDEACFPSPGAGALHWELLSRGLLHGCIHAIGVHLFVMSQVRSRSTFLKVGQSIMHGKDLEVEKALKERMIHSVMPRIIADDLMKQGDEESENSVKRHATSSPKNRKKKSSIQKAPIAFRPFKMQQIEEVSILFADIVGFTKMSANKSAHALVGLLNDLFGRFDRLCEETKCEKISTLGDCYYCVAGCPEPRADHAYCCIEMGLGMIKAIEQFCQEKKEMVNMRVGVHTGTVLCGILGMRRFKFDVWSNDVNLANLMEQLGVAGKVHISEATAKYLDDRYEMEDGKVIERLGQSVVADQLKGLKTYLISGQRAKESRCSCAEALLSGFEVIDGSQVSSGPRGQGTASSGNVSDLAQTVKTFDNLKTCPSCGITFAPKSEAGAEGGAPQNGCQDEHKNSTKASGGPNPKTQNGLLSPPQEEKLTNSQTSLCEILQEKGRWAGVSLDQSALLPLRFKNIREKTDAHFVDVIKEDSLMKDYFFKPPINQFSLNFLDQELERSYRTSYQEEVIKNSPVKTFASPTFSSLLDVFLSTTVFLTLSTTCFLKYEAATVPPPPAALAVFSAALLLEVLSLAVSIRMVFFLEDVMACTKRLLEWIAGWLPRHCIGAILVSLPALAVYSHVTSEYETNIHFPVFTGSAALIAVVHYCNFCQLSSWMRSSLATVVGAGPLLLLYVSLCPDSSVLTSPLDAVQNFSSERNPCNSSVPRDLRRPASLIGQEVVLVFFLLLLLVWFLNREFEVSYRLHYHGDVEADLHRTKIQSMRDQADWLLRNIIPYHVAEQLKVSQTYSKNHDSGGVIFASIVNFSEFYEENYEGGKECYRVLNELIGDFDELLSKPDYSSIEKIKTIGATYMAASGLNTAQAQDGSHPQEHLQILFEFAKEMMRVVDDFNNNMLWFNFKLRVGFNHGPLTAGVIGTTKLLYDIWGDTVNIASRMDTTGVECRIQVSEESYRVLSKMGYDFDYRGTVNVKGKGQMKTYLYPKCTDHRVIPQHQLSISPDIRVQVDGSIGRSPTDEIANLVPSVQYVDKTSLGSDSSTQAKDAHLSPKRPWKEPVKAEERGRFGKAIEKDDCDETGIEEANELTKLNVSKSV

Adenylate cyclase = target: T2, Adenylate cyclase (Arthrospira platensis, UniProt O32393); assay: Inhibition of Spirulina platensis adenylyl cyclase assessed as cAMP level by cAMP immunogenic assay; set-up: species or system Limnospira platensis
T2 sequence (O32393 whole entry): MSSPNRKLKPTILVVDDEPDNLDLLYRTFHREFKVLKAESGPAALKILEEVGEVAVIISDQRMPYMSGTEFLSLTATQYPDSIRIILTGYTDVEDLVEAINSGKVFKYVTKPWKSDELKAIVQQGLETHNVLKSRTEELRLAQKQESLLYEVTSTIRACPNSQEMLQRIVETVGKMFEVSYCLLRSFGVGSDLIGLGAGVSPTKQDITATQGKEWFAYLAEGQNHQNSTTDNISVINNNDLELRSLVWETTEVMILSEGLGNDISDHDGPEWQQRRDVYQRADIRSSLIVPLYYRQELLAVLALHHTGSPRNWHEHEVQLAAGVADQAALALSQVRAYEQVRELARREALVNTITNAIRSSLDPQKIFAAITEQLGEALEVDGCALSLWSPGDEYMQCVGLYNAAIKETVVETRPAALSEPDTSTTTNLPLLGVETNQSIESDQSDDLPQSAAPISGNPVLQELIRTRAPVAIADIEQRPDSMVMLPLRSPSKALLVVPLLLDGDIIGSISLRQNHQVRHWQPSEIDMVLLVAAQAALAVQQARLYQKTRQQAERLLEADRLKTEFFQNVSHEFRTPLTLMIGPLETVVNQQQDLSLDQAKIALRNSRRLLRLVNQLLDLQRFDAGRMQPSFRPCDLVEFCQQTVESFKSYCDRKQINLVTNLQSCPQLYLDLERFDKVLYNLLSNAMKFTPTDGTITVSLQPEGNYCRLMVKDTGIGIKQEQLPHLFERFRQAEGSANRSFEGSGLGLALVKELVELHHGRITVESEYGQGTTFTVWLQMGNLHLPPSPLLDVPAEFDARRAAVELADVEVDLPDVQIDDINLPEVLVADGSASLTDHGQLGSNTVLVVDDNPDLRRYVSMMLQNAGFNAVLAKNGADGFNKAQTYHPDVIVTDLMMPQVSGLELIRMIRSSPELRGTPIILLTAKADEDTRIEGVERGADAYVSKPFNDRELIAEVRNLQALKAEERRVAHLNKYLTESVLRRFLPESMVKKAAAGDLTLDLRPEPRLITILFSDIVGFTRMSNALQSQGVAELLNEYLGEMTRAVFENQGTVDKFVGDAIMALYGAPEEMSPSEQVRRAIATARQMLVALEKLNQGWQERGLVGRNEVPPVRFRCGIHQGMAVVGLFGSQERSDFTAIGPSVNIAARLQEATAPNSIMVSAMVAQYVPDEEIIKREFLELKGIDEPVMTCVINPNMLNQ

Sequence of Adenylate cyclase type 10 (Q96PN6 whole entry): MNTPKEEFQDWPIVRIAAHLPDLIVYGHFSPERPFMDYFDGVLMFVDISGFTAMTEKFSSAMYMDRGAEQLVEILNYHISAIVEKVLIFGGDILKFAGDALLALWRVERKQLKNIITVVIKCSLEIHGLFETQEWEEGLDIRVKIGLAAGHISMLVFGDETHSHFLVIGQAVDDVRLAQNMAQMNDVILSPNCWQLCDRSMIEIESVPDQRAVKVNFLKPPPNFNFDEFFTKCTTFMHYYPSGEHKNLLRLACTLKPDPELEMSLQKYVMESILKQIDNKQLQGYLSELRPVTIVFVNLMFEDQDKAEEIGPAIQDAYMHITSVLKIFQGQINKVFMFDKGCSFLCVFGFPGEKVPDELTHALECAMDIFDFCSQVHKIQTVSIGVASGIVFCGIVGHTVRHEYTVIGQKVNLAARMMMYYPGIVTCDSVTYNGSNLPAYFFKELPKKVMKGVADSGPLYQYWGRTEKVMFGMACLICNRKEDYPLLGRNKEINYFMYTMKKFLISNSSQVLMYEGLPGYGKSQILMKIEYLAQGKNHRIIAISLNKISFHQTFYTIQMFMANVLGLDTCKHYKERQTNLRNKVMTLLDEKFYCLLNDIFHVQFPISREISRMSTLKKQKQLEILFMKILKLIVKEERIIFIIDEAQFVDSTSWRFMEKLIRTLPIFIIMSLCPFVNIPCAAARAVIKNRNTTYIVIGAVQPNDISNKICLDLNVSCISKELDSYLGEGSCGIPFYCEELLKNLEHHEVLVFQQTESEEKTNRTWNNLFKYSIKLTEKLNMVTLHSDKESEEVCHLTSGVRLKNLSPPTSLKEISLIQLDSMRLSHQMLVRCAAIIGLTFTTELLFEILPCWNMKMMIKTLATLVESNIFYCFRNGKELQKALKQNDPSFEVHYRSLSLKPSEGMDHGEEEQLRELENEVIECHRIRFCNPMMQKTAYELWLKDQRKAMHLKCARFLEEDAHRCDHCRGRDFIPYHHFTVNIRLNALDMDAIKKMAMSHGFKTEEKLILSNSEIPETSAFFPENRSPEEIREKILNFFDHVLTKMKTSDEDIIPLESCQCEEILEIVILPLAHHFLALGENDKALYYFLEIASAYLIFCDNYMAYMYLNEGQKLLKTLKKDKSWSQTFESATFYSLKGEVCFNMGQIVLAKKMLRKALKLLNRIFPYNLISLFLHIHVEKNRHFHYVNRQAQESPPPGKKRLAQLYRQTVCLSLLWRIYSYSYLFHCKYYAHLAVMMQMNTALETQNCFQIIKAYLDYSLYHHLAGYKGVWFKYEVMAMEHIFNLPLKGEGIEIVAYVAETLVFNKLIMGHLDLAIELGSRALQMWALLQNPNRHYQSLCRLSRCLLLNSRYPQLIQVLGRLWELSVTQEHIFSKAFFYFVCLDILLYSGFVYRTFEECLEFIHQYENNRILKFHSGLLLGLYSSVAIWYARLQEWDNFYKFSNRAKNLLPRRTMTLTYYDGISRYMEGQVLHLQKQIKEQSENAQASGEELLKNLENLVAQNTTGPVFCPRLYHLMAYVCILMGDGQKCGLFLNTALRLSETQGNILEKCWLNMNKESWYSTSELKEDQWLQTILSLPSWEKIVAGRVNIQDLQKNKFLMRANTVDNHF
Sequence of Adenylate cyclase type 2 (Homo sapiens) (Q08462 whole entry): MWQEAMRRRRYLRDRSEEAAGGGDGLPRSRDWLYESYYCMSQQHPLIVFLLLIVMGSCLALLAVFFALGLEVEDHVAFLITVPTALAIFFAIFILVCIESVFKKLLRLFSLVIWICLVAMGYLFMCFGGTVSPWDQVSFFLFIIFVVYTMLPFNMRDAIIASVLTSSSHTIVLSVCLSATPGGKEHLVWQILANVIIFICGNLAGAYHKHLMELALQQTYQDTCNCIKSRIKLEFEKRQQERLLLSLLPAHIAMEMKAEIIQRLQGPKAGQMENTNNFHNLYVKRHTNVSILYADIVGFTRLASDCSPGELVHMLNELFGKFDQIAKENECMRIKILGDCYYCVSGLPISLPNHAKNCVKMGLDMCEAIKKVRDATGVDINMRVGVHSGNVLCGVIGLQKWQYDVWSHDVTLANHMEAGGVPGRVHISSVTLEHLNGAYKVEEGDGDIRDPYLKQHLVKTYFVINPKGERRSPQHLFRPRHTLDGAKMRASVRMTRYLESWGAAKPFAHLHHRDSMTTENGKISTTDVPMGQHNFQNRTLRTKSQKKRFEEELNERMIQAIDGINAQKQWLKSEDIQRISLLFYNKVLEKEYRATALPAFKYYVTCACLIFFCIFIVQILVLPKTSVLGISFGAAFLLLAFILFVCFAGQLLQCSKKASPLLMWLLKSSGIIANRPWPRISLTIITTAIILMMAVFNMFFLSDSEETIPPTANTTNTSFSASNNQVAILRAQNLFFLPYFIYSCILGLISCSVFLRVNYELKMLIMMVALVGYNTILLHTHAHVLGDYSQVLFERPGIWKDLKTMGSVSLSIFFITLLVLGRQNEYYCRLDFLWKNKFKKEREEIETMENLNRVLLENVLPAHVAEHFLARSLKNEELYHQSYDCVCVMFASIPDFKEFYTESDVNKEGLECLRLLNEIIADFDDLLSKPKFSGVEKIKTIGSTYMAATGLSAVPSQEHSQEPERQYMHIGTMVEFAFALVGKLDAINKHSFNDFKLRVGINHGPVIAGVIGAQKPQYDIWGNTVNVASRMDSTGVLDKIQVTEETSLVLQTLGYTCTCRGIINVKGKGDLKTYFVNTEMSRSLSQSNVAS
Sequence of Adenylate cyclase type 5 (Homo sapiens) (O95622 whole entry, looked up): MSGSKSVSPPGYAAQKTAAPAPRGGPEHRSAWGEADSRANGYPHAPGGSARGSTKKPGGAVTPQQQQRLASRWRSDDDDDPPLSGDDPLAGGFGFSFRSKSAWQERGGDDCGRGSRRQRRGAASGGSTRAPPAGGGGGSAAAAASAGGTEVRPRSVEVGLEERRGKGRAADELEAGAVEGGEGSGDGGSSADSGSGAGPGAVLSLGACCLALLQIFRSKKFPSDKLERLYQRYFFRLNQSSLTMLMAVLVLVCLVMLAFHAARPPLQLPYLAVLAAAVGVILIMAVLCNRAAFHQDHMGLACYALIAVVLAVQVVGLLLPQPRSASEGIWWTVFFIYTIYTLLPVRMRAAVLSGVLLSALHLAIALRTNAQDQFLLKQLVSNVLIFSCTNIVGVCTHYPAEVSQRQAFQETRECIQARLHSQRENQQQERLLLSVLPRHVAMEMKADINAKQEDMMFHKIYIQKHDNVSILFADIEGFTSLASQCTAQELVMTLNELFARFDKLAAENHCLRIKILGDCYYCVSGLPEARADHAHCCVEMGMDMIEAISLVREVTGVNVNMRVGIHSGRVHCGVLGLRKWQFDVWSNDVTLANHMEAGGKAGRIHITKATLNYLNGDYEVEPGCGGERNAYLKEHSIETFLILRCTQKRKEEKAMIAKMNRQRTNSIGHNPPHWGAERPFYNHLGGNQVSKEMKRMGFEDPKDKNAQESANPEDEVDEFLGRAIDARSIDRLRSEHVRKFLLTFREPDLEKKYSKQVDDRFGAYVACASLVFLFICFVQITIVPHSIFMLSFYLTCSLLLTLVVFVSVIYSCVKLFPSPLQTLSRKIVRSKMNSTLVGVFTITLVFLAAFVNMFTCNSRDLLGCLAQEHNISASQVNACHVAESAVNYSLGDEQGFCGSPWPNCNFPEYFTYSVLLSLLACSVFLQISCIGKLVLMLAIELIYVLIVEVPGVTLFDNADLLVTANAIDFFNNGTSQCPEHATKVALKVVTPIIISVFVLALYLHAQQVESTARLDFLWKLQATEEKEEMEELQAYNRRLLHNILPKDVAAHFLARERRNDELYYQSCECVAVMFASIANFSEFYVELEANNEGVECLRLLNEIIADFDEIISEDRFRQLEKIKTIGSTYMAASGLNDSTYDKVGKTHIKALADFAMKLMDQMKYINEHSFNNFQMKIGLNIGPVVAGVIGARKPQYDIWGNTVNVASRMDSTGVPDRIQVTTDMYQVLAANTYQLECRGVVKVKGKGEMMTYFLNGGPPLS
Sequence of Adenylate cyclase type 1 (Homo sapiens) (Q08828 whole entry, looked up): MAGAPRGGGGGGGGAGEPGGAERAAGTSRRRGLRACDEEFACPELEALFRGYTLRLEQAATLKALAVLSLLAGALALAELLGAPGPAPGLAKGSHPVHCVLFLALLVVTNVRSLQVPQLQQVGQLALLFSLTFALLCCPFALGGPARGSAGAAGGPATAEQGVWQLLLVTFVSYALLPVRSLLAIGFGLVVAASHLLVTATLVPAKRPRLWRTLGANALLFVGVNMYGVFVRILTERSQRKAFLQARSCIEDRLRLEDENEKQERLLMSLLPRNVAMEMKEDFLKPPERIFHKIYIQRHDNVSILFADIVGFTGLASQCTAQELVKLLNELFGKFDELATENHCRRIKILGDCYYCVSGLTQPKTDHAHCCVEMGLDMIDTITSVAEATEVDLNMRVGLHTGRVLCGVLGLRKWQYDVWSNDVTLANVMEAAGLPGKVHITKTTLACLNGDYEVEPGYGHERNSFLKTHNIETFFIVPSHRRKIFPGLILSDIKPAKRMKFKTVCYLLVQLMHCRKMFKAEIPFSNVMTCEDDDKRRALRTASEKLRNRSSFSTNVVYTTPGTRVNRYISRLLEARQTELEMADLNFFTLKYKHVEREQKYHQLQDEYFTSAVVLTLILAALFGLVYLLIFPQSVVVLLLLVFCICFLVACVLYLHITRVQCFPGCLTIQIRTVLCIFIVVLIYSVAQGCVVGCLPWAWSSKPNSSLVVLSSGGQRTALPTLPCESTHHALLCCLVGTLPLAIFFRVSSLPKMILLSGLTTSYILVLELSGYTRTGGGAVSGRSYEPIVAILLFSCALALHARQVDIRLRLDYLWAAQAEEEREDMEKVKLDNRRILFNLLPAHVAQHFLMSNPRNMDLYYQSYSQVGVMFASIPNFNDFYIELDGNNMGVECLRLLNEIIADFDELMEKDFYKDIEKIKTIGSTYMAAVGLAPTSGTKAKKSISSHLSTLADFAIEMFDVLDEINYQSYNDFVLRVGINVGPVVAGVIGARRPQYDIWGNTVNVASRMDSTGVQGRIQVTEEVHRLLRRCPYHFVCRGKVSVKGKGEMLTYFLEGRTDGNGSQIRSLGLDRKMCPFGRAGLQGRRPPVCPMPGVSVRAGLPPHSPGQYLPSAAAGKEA

O=C(O)c1cc2c(cc1S(=O)(=O)O)C1C(C3C2C2(Cl)C(Cl)=C(Cl)C3(Cl)C2(Cl)Cl)C2(Cl)C(Cl)=C(Cl)C1(Cl)C2(Cl)Cl (stereo unspecified)
Activity [1]: Active | Activity [2]: Active | Activity [3]: Active | Activity [4]: Active | Activity [5]: Active | IC50 [6]: 11 µM | Activity [7]: Active

BrC(c1cccc2ccccc12)c1cccc2ccccc12
IC50 (Adenylate cyclase): 200 µM

C[C@]12CC[C@@H]3c4cc(O)c(O)cc4CC[C@H]3[C@@H]1CC[C@@H]2O
IC50 [6]: 3 µM

C[C@]12CC[C@H]3[C@@H](CCC4=CC(=O)CC[C@@]43C)[C@@H]1CC[C@@H]2C(=O)COS(=O)(=O)c1ccc(Br)cc1
Activity [1]: inactive | Activity [2]: inactive | Activity [3]: inactive | Activity [4]: inactive | IC50 [6]: 1.1 µM | Activity [7]: inactive

C[C@H]1[C@H](C)CC[C@]2(C(=O)O)CC[C@]3(C)C(=CC[C@@H]4[C@@]5(C)C[C@@H](O)[C@H](O)[C@@](C)(CO)[C@@H]5[C@H](O)C[C@]43C)[C@H]12 [MADECASSIC ACID]
IC50 (Adenylate cyclase): 100 µM
